# Reference: US20220079993A1, “NON-NATURALLY OCCURRING THERMOGENIC ADIPOCYTES, METHODS OF MAKING, AND METHODS OF USE THEREOF” (University of Georgia Research Foundation, Inc., priority 2019, published 2022)
# Experiments:
# Format in all cases: cell-based, human
# [1] = system: beige adipocytes; experiment: High-throughput primary screen, lipolysis assay (glycerol release), 384-well; conditions: 20 μM, 24 hours of drug treatment, vs untreated beige adipocytes
# Procedure: ADSCs were seeded at 5000 cell/cm^2 in 12-well plates, grown for 5 days and then induced to differentiate into GC for 20 days. […] Cells were treated with forskolin (20 μM) for indicated time periods and supernatant samples were collected. Lipolysis assay was performed with free glycerol reagent (Sigma, F6428-40ML), according to manufacturer instructions.
# ADSCs were plated in 384-well plates at a density of 5000 cell/cm2 and grown to confluency over ˜4 days. Cells were then differentiated to beige adipocytes using B-8 medium for 21 days. All cell culture and incubations in the 384-well format were done at 37° C. and 5% CO2. […] The use of FDA-approved drugs may allow for re-purposing for therapeutic use.
# Lipolysis assays were performed after 24 hours of drug treatment by measuring free glycerol released in the 384-well format, using the procedure described above. Absorbance for each compound was normalized to untreated control samples for each plate and calculated as a percent of the control. Cut-offs for “activating” and “inhibiting” compounds were set at 2-fold. Validation assays were performed for select compounds at a range of concentration doses.
# [2] = system: UCP1; experiment: qRT-PCR of UCP1 transcript in beige adipocytes -/+ forskolin; conditions: beige adipocytes stimulated with FSK (20 uM)
# Procedure: (§1) FIG. 2A is a bar graph showing RNA expression levels by qRT-PCR for indicated genes (UCP1, DIO2) for adipose derived stem cells (ADSCs), GlucoCytes (GC), or GC with forskolin (FSK, 20 uM). FIG. 2B is a bar graph showing quantitation of immunostaining data (UCP1) from 6 independent fields of view. FIGS. 2C and 2D are bar graphs showing qRT-PCR of UCP1 of GC induced from an additional line purchased from ThermoFisher (2C) and an immortalized ADSC line purchased from ATCC (ASC52-telo) (2D). Transcript levels were determined by qRT-PCR. n=3 for each independent replicate. Data are mean+/−standard deviation. *P<0.0.05, **P<0.01, ***P<0.005. […] Cell lysates were collected at indicated days and RNA was isolated and analyzed by qRT-PCR for marker expression. […] Each line was differentiated for 21 days to beige adipocytes using B-8 medium and transcript levels of UCP1 (2Q), PPARGC1 (2R), IRF4 (2S), and ADIPOQ (2T) were measured by Taqman qRT-PCR for indicated genes +/−FSK for 6 hours (20 μM).
# (§2) Cells were washed with DPBS, lysed directly on the plate and used for RNA isolation with the E.Z.N.A Total RNA Kit (Omega, R6834-02) according to manufacturer instructions. RNA quantitation was performed with the Biotek Synergy 2 plate reader and cDNA was synthesized using 1 ug of RNA with the iScript cDNA Synthesis Kit (Bio-Rad, 1708841). […]
# [3] = system: DIO2; experiment: qRT-PCR of DIO2 transcript in beige adipocytes -/+ forskolin; conditions: beige adipocytes stimulated with FSK (20 uM)
# Procedure: as §1, §2
compound,measurement,setting,value
C=C[C@@]1(C)CC(=O)[C@]2(O)[C@@]3(C)[C@@H](O)CCC(C)(C)[C@@H]3[C@H](O)[C@H](OC(C)=O)[C@@]2(C)O1 [Forskolin],% Control (relative levels of glycerol release),[1],262.31 % control
same,UCP1 transcript level compared to ADSCs,[2],520 fold
same,DIO2 transcript level compared to ADSCs,[3],130 fold
